Here are results for 4 molecules from patent US9078907B2, “Immunoregulator compounds” (Universita Degli Studi Di Roma “Tor Vergata”, priority 2001, dated 2015).

The test system of one test is Mycobacterium smegmatis. As to the kind of experiment: Colony forming units of M. smegmatis in differentiated THP-1 cells. The class given is cell-based. The following applies: THP-1, M. smegmatis, S1P 5 μM; ethanol 0.3%, 0.03%, 0.003% (dose dependent) or calphostin C 10 nM. The method, then:
Human monocytic THP-1 leukemia line cells were used in this example as a model for macrophage response. In order to obtain macrophage phenotype, 5×10^5/ml THP-1 cells were induced to differentiate by 48 hours incubation in the presence of 20 ng/ml Phorbol Myristate Acetate (PMA). Differentiated THP-1 cells (dTHP-1) were then centrifuged three times and suspended in complete medium [RPMI 1640 (Gibco BRL) supplemented with 10% fetal bovine serum (Gibco BRL), 5 mM L-glutamine (Invitrogen), 1 mM sodium pyruvate (Gibco BRL) and non-essential amino acids (Euroclone)]. dTHP-1 were then infected for 3 hours with M. smegmatis at the multiplicity of infection of bacterium/cell 50:1. Following infection cells were washed three times with RPMI 1640 and incubated in complete medium at 37° C. for further 1, 12 and 24 hours in the presence or absence of sphingosine-1 phosphate used at the concentration of 5 μM.
In order to assess the role of macrophage PLD activity in sphingosine 1-phosphate induced mycobacterial growth control, following the infection the cells were cultured in the presence of various concentrations of ethanol (0.3%, 0.03%, 0.003%) or 10 nM calphostin C. […] Inhibiting activity of calphostin C is exploited by targeting PLD catalytic domain (Sciorra V. A., Hammond S. M., Morris A. J. Potent direct inhibition of mammalian phospholipase D isoenzymes by calphostin c. Biochemistry 2001; 40: 2640-46). Just after the infection and at the indicated time points, cells were 1) lysed using cold PBS containing 0.1% saponin (Sigma, MA, USA), ii) serially diluted in PBS containing 0.01% Tween-80 (Merck, Darmstadt, Germany) and iii) plated in triplicate in Middlebrook 7H10 medium (Becton Dickinson, MD, USA) supplemented with 10% OADC formulation (0.5 mg/ml oleic acid, 50 mg/ml albumin, 20 mg/ml dextrose, 0.04 mg/ml catalase and 8.5 mg/ml sodium chloride). M. smegmatis colonies were enumerated after incubation for 3 days at 37° C.

The subject of the next test is macrophage PLD. The class given is cell-based, human.
In the next test the test system is macrophages. Description: ROI generation by dichlorofluorescein (DCF) flow cytometry. The class given is cell-based, human. The following applies: lipopolysaccharide stimulated cells, positive control. As for the experimental part: Because dichloro fluorescein (DCF) is a fluorochrome obtained from reaction of non fluorescent 2, 7-dichloro fluorescein diacetate (DCFH) with various oxidants, analysis thereof is used to detect cellular oxidative stress and amount of oxygen reactive intermediates (ROI) produced by phagocytic cells. In the used model, this analysis is employed in order to monitor the D-erythro-sphingosine 1-phosphate (S1P) modulated ROI production from macrophages. Macrophages were incubated for 90 minutes with sphingosine 1-phosphate at 0.5 μM, 5 μM, 10 μM and 50 μM concentrations. After the incubation 100 μl of 0.4 μM DCFH (Calbiochem) were added and incubated for at least 30 minutes. Finally, cells were washed with PBS and analysed using FACScan flow cytometer from Becton Dickinson.

With `CCO` [ethanol], the “mycobacterial replication after PLD inhibitor treatment of S1P treated cells” value in the test with Mycobacterium smegmatis is listed as “increase”. IFN-γ: in the test with macrophage PLD, the “effect of IFN-γ pre-treatment on PLD activity of infected macrophages” value was “does not modify” and the “effect of IFN-γ treatment before and/or after infection on levels of macrophage PLD activity” value was “does not appear to modify”. For calphostin C, the “mycobacterial replication after PLD inhibitor treatment of S1P treated cells” value with Mycobacterium smegmatis was “increase”. As for “lipopolysaccharides [reference compound]”, in the test with macrophages, the “DCF positive cells after stimulation” value is “increase”.
